Assay [1] deals with T1, human Siglec-2/CD22 protein (Homo sapiens, UniProt P20273).
T1 construct: purchased Acro Biosystems SI2-H82E3
T1 sequence (P20273 20-847): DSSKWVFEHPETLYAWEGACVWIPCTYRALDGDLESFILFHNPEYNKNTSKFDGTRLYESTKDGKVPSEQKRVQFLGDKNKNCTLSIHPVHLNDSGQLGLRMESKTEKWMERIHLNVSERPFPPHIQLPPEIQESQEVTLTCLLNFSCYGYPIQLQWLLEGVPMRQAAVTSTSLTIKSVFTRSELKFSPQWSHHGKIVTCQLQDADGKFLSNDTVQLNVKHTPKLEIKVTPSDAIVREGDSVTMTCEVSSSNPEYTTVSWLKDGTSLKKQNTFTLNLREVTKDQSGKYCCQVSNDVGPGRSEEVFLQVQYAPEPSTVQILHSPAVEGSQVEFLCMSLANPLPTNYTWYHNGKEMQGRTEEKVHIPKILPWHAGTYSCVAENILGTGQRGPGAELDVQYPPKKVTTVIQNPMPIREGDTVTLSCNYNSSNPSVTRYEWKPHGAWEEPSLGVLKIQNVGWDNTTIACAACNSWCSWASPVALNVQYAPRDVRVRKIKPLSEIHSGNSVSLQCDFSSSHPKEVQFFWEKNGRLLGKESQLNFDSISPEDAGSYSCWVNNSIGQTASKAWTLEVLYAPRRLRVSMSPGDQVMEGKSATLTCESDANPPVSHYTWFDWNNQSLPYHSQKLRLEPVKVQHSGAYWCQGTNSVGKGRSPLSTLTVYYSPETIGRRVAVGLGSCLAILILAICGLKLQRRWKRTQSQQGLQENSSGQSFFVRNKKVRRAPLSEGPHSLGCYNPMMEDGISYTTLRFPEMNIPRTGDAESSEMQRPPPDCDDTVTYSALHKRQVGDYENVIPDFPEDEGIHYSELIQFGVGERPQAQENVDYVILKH
Kind of assay: SPR binding affinity to human CD22. To be noted: steady-state analysis. The method in brief: (§1)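 Using a Biacore 8K, compounds were tested against biotinylated CD22 captured after sialidase treatment. The running buffer held 1% DMSO, corrected with a 0.5–2% DMSO series. Affinity was derived by steady-state analysis.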
(In SPR one partner is held on a chip, and binding of the other changes the refractive index at the surface.)

Assay [2] has as its target T2, mouse Siglec-2-Fc-Avi (CD22) (Mus musculus, UniProt P35329).
T2 construct: made in house
T2 sequence (P35329 22-708 limits assumed): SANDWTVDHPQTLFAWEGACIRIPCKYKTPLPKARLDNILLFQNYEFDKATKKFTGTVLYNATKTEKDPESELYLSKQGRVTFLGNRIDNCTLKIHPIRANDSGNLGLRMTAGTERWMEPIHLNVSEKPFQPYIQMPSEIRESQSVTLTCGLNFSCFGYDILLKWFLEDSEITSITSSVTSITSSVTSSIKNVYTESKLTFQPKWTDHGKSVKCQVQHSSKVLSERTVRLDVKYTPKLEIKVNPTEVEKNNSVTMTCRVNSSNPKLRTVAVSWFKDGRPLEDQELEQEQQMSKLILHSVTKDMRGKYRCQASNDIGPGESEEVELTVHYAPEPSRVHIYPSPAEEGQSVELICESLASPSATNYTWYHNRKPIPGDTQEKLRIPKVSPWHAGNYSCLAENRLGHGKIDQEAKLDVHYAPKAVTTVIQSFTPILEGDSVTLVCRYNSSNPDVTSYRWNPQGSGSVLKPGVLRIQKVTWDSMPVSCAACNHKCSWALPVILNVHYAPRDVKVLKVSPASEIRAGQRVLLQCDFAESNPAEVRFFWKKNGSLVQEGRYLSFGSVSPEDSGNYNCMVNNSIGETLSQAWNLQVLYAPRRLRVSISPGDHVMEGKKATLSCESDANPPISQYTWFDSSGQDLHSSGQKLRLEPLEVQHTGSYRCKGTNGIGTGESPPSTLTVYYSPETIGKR
Kind of assay: SPR binding affinity to mouse CD22. To be noted: steady-state analysis. Summed up: as §1

The target in a further assay is cynomolgus Siglec-2/CD22 (Macaca fascicularis, UniProt A0A2K5WCZ6). The experiment in a line: biochemical. The format is binding. The conditions noted are these: SPR, steady-state analysis; read-out: Affinity cyno CD22. Summed up:
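Compound binding measured by steady-state SPR analysis, 120 s dissociation, in HEPES-NaCl-Tween buffer pH 7.5 containing 1% DMSO, DMSO solvent-corrected. Surface: cyno CD22, sialic acids first stripped by SialoExo for 4 h at 37° C., then amine-coupled onto CM5.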

Chain of cynomolgus Siglec-2/CD22 (A0A2K5WCZ6 entry or part of it): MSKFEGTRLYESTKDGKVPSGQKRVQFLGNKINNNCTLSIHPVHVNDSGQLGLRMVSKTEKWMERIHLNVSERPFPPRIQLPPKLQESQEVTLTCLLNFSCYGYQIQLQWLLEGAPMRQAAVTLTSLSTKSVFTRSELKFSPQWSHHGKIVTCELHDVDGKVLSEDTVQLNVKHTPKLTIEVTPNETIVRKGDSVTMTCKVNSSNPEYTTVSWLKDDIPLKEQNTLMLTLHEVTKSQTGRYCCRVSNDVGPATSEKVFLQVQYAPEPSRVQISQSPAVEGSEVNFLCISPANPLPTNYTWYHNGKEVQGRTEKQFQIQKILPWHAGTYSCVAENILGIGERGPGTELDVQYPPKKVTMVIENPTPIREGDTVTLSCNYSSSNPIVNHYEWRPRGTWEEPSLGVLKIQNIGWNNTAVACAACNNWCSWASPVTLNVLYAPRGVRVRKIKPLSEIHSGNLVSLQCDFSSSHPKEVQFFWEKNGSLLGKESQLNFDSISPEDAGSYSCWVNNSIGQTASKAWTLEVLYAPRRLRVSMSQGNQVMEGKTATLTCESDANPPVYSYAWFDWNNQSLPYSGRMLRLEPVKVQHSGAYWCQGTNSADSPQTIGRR

With `C#CCOCCOCCO[C@]1(C(=O)O)C[C@H](O)[C@@H](NC(=O)CO)[C@H]([C@H](O)[C@H](O)CNC(=O)Cc2ccc(O)c(Cl)c2)O1` [Compound 197, (2R,4S,5R,6R)-6-((1R,2R)-3-(2-(3-chloro-4-hydroxyphenyl)acetamido)-1,2-dihydroxypropyl)-4-hydroxy-5-(2-hydroxyacetamido)-2-(2-(2-(prop-2-yn-1-yloxy)ethoxy)ethoxy)tetrahydro-2H-pyran-2-carboxylic acid], the Kd (in assay [1]; in assay [2]; at cynomolgus Siglec-2/CD22) was greater than 10 µM each time.
Consider `C#CCOCCOCCO[C@]1(C(=O)O)C[C@H](O)[C@@H](NC(=O)CO)[C@H]([C@H](O)[C@H](O)CNC(=O)c2ccc(O)cc2)O1` [Compound 198, (2R,4S,5R,6R)-6-((1R,2R)-1,2-dihydroxy-3-(4-hydroxybenzamido)propyl)-4-hydroxy-5-(2-hydroxyacetamido)-2-(2-(2-(prop-2-yn-1-yloxy)ethoxy)ethoxy)tetrahydro-2H-pyran-2-carboxylic acid], for which the Kd (in assay [1]; in assay [2]; on cynomolgus Siglec-2/CD22) was greater than 10 µM throughout.
For the compound `C#CCOCCOCCO[C@]1(C(=O)O)C[C@H](O)[C@@H](NC(=O)NCC(F)(F)F)[C@H]([C@H](O)[C@H](O)CNC(=O)Cc2ccc(-c3ccc(O)cc3)cc2)O1` [Compound 199, (2R,4S,5R,6R)-6-((1R,2R)-1,2-dihydroxy-3-(2-(4′-hydroxy-[1,1′-biphenyl]-4-yl)acetamido)propyl)-4-hydroxy-2-(2-(2-(prop-2-yn-1-yloxy)ethoxy)ethoxy)-5-(3-(2,2,2-trifluoroethyl)ureido)tetrahydro-2H-pyran-2-carboxylic acid], the Kd (in assay [1]; in assay [2]; at cynomolgus Siglec-2/CD22) was greater than 10 µM each time.
As to `C#CCOCCOCCO[C@]1(C(=O)O)C[C@H](O)[C@@H](NC(=O)CO)[C@H]([C@H](O)[C@H](O)CNC(=O)C[C@H]2CC[C@@H](O)CC2)O1` [Compound 200, (2R,4S,5R,6R)-6-((1R,2R)-1,2-dihydroxy-3-(2-((1s,4S)-4-hydroxycyclohexyl)acetamido)propyl)-4-hydroxy-5-(2-hydroxyacetamido)-2-(2-(2-(prop-2-yn-1-yloxy)ethoxy)ethoxy)tetrahydro-2H-pyran-2-carboxylic acid], the Kd (in assay [1]; in assay [2]; at cynomolgus Siglec-2/CD22) was greater than 10 µM each time.
Turning to `C#CCOCCOCCO[C@]1(C(=O)O)C[C@H](O)[C@@H](NC(=O)CO)[C@H]([C@H](O)[C@H](O)CNC(=O)c2cccc(Cl)c2)O1` [Compound 201, (2R,4S,5R,6R)-6-((1R,2R)-3-(3-chlorobenzamido)-1,2-dihydroxypropyl)-4-hydroxy-5-(2-hydroxyacetamido)-2-(2-(2-(prop-2-yn-1-yloxy)ethoxy)ethoxy)tetrahydro-2H-pyran-2-carboxylic acid], the Kd (in assay [1]; in assay [2]; on cynomolgus Siglec-2/CD22) was greater than 10 µM in each case.
As to `C#CCOCCOCCO[C@]1(C(=O)O)C[C@H](O)[C@@H](NC(=O)CO)[C@H]([C@H](O)[C@H](O)CNC(=O)c2ccccc2)O1` [Compound 202, (2R,4S,5R,6R)-6-((1R,2R)-3-benzamido-1,2-dihydroxypropyl)-4-hydroxy-5-(2-hydroxyacetamido)-2-(2-(2-(prop-2-yn-1-yloxy)ethoxy)ethoxy)tetrahydro-2H-pyran-2-carboxylic acid], the Kd in assay [1] was greater than 10 µM; in assay [2], 1 to 10 µM; at cynomolgus Siglec-2/CD22, less than 1 µM.
`CCCCCC[C@H](O)[C@]1(C(=O)O)C[C@H](O)[C@@H](NC(=O)CO)[C@H]([C@H](O)[C@H](O)CNC(=O)Cc2ccc(Cl)cc2)O1` [Compound 203, (2S,4S,5R,6R)-6-((1R,2R)-3-(2-(4-chlorophenyl)acetamido)-1,2-dihydroxypropyl)-4-hydroxy-5-(2-hydroxyacetamido)-2-((S)-1-hydroxyheptyl)tetrahydro-2H-pyran-2-carboxylic acid]: the Kd in assay [1] is less than 1 µM; in assay [2], 1 to 10 µM; on cynomolgus Siglec-2/CD22, less than 1 µM.
On to `C#CCCOc1ccc(CO[C@]2(C(=O)O)C[C@H](O)[C@@H](NC(N)=O)[C@H]([C@H](O)[C@H](O)CNC(=O)Cc3ccc(Cl)cc3)O2)cc1` [Compound 205, (2R,4S,5R,6R)-2-((4-(but-3-yn-1-yloxy)benzyl)oxy)-6-((1R,2R)-3-(2-(4-chlorophenyl)acetamido)-1,2-dihydroxypropyl)-4-hydroxy-5-ureidotetrahydro-2H-pyran-2-carboxylic acid], for which the Kd (in assay [1]; in assay [2]; on cynomolgus Siglec-2/CD22) was less than 1 µM throughout.
On to `CCCCCCC[C@]1(C(=O)O)C[C@H](O)[C@@H](NC(=O)CO)[C@H]([C@H](O)[C@H](O)CNC(=O)Cc2ccc(Cl)cc2)O1` [Compound 206, (2R,4S,5R,6R)-6-((1R,2R)-3-(2-(4-chlorophenyl)acetamido)-1,2-dihydroxypropyl)-2-heptyl-4-hydroxy-5-(2-hydroxyacetamido)tetrahydro-2H-pyran-2-carboxylic acid], for which the Kd in assay [1] is less than 1 µM; in assay [2], 1 to 10 µM; on cynomolgus Siglec-2/CD22 it was less than 1 µM.
Turning to `CCCNC(=O)CCCCCCO[C@]1(C(=O)O)C[C@H](O)[C@@H](NC(=O)CO)[C@H]([C@H](O)[C@H](O)CNC(=O)Cc2cccc(O)c2)O1` [Compound 207, (2R,4S,5R,6R)-6-((1R,2R)-1,2-dihydroxy-3-(2-(3-hydroxyphenyl)acetamido)propyl)-4-hydroxy-5-(2-hydroxyacetamido)-2-((7-oxo-7-(propylamino)heptyl)oxy)tetrahydro-2H-pyran-2-carboxylic acid], the Kd (in assay [1]; in assay [2]; on cynomolgus Siglec-2/CD22) was 1 to 10 µM in each case.
For `C#CCOCCCCCCO[C@]1(C(=O)O)C[C@H](O)[C@@H](NC(=O)Cc2nn[nH]n2)[C@H]([C@H](O)[C@H](O)CNC(=O)Cc2ccc(Cl)cc2)O1` [Compound 208, (2R,4S,5R,6R)-5-(2-(2H-tetrazol-5-yl)acetamido)-6-((1R,2R)-3-(2-(4-chlorophenyl)acetamido)-1,2-dihydroxypropyl)-4-hydroxy-2-((6-(prop-2-yn-1-yloxy)hexyl)oxy)tetrahydro-2H-pyran-2-carboxylic acid], the results for the Kd (in assay [1]; in assay [2]; at cynomolgus Siglec-2/CD22) were 1 to 10 µM, greater than 10 µM and less than 1 µM, respectively.
Regarding `C#CCOCCCCCCO[C@]1(C(=O)O)C[C@H](O)[C@@H](NC(=O)C(O)CO)[C@H]([C@H](O)[C@H](O)CNC(=O)Cc2ccc(Cl)cc2)O1` (stereo partly drawn) [Compound 210, (2R,4S,5R,6R)-6-((1R,2R)-3-(2-(4-chlorophenyl)acetamido)-1,2-dihydroxypropyl)-5-(2,3-dihydroxypropanamido)-4-hydroxy-2-((6-(prop-2-yn-1-yloxy)hexyl)oxy)tetrahydro-2H-pyran-2-carboxylic acid], the Kd in assay [1] was 1 to 10 µM; in assay [2], less than 1 µM; at cynomolgus Siglec-2/CD22, less than 1 µM.
On to `C#CCOCCCCCCO[C@]1(C(=O)O)C[C@H](O)[C@@H](NC(=O)CNC)[C@H]([C@H](O)[C@H](O)CNC(=O)Cc2ccc(Cl)cc2)O1` [Compound 211], for which the Kd (in assay [1]; in assay [2]; on cynomolgus Siglec-2/CD22) was less than 1 µM each time.

Source of the values: US20250064941A1, “SIGLEC LIGANDS, CONJUGATES, AND METHODS OF USE THEREOF” (Osprey Biopharmaceuticals, Inc., priority 2023, published 2025).
